{"source": "patent US12485132B2", "about": "“GPX4 inhibitors and senolytic compounds and uses thereof” (Rubedo Life Sciences, Inc., priority 2023, dated 2025)", "data": [{"tested_on": "senescent HEPG2 cells", "assay": "Senescence assay: viability of senescent HEPG2 cells", "type": "cell-based", "details": "Homo sapiens, 24-72 hours incubation, viability by CellTiter-Glo or XTT, read-out: Absolute IC50 average HEPG2_SEN IC50", "description": "Cells were maintained in DMEM media (high glucose, 4 mM L-glutamine, no sodium pyruvate) supplemented with 10% fetal bovine serum in a humidified incubator at 37° C. with 5% carbon dioxide. Senescence was induced via treatment with a sublethal concentration of chemotherapy (bleomycin, gemcitabine, doxorubicin, 5-fluorouridine), followed by a rest period without chemotherapy similarly to what is reported by others in the field (e.g., Aoshiba et al., 2003 Eur Respir J 22:436-443). Senescence was qualified by low EdU (5-ethynyl-2′-deoxyuridine) incorporation and high SA-β-Gal (senescence-associated beta-galactosidase) staining compared to proliferating untreated cells. Senescent cells were plated into 96-well plates at a density of 5-15,000 cells/well. The next day, compounds were added in duplicate across ten different concentrations spanning roughly four Log10 units. Cells were incubated with the compounds for 24-72 hours, at which point viability was quantified using CellTiter-Glo (Promega) or XTT (R&D Systems). The viability for treated cells was determined relative to untreated control cells. The log of the compound concentration vs. normalized mean viability was fit to a four parameters Hill function with variable slope. The bottom was constrained to be greater than zero. The X mean value for Y=50 was interpolated to determine the absolute IC50. The results in Table 2 indicate that many of the compounds are active in cells and can induce a dose dependent decrease in the viability of senescent HEPG2 and A549 cells.", "units": {"IC50": "nM"}, "values": [{"smiles": "C#CC(F)(F)[C@]1(O)CC[C@H]2[C@@H]3CCC4=C/C(=N/NC(=O)O[C@@H]5O[C@@H](C)[C@@H](OC(C)=O)[C@@H](OC(C)=O)[C@@H]5OC(C)=O)CCC4=C3[C@H](c3ccc(C4CC4)cc3)C[C@@]21C", "note": "[Compound 30, (2S,3S,4R,5R,6S)-2-((2-((8S,11S,13S,14S,17S,E)-11-(4-cyclopropylphenyl)-17-(1,1-difluoroprop-2-yn-1-yl)-17-hydroxy-13-methyl-1,2,6,7,8,11,12,13,14,15,16,17-dodecahydro-3H-cyclopenta[a]phenanthren-3-ylidene)hydrazine-1-carbonyl)oxy)-6-methyltetrahydro-2H-pyran-3,4,5-triyl triacetate]", "IC50": "0.1 to 10"}, {"smiles": "C#CC(F)(F)[C@]1(O)CC[C@H]2[C@@H]3CCC4=C/C(=N/OCCOCCO)CCC4=C3[C@@H](c3ccc(C4CC4)cc3)C[C@@]21C", "note": "[Compound 12, (8S,11R,13S,14S,17S,E)-11-(4-cyclopropylphenyl)-17-(1,1-difluoroprop-2-yn-1-yl)-17-hydroxy-13-methyl-1,2,6,7,8,11,12,13,14,15,16,17-dodecahydro-3H-cyclopenta[a]phenanthren-3-one O-(2-(2-hydroxyethoxy)ethyl)oxime]", "IC50": "0.1 to 10"}, {"smiles": "C#CC(F)(F)[C@]1(O)CC[C@H]2[C@@H]3CCC4=C/C(=N/NC(N)=O)CCC4=C3[C@H](c3ccc(C4CC4)cc3)C[C@@]21C", "note": "[Compound 41, (E)-2-((8S,11S,13S,14S,17S)-11-(4-cyclopropylphenyl)-17-(1,1-difluoroprop-2-yn-1-yl)-17-hydroxy-13-methyl-1,2,6,7,8,11,12,13,14,15,16,17-dodecahydro-3H-cyclopenta[a]phenanthren-3-ylidene)hydrazine-1-carboxamide]", "IC50": "0.1 to 10"}, {"smiles": "C#CC(F)(F)[C@]1(O)CC[C@H]2[C@@H]3CCC4=C/C(=N/NC(=O)NCC5CC5)CCC4=C3[C@H](c3ccc(C4CC4)cc3)C[C@@]21C", "note": "[Compound 50, (E)-N-(cyclopropylmethyl)-2-((8S,11S,13S,14S,17S)-11-(4-cyclopropylphenyl)-17-(1,1-difluoroprop-2-yn-1-yl)-17-hydroxy-13-methyl-1,2,6,7,8,11,12,13,14,15,16,17-dodecahydro-3H-cyclopenta[a]phenanthren-3-ylidene)hydrazine-1-carboxamide]", "IC50": "0.1 to 10"}, {"smiles": "C#CC(F)(F)[C@]1(O)CC[C@H]2[C@@H]3CCC4=C/C(=N/NC(=O)OCC)CCC4=C3[C@H](c3ccc(C4CC4)cc3)C[C@@]21C", "note": "[Compound 40, ethyl (E)-2-((8S,11S,13S,14S,17S)-11-(4-cyclopropylphenyl)-17-(1,1-difluoroprop-2-yn-1-yl)-17-hydroxy-13-methyl-1,2,6,7,8,11,12,13,14,15,16,17-dodecahydro-3H-cyclopenta[a]phenanthren-3-ylidene)hydrazine-1-carboxylate]", "IC50": "0.1 to 10"}, {"smiles": "C#CC(F)(F)[C@]1(O)CC[C@H]2[C@@H]3CCC4=C/C(=N/O[C@H]5C[C@H](O)[C@H](O)[C@H](C)O5)CCC4=C3[C@H](c3ccc(C4CC4)cc3)C[C@@]21C", "note": "[Compound 5, (8S,11S,13S,14S,17S,E)-11-(4-cyclopropylphenyl)-17-(1,1-difluoroprop-2-yn-1-yl)-17-hydroxy-13-methyl-1,2,6,7,8,11,12,13,14,15,16,17-dodecahydro-3H-cyclopenta[a]phenanthren-3-one O-((2S,4S,5S,6S)-4,5-dihydroxy-6-methyltetrahydro-2H-pyran-2-yl) oxime]", "IC50": "10 to 100"}, {"smiles": "C#CC(F)(F)[C@]1(O)CC[C@H]2[C@@H]3CCC4=C/C(=N\\O[C@H]5C[C@H](O)[C@H](O)[C@H](C)O5)CCC4=C3[C@H](c3ccc(C4CC4)cc3)C[C@@]21C", "note": "[Compound 6, (8S,11S,13S,14S,17S,Z)-11-(4-cyclopropylphenyl)-17-(1,1-difluoroprop-2-yn-1-yl)-17-hydroxy-13-methyl-1,2,6,7,8,11,12,13,14,15,16,17-dodecahydro-3H-cyclopenta[a]phenanthren-3-one O-((2S,4S,5S,6S)-4,5-dihydroxy-6-methyltetrahydro-2H-pyran-2-yl) oxime]", "IC50": "0.1 to 10"}, {"smiles": "C#CC(F)(F)[C@]1(O)CC[C@H]2[C@@H]3CCC4=CC(=NOCCOCCOCCOCCNC(=O)CCCCC5SCC6NC(=O)NC65)CCC4=C3[C@@H](c3ccc(C4CC4)cc3)C[C@@]21C", "note": "(some centres unmarked) [compound 21]", "IC50": "0.1 to 10"}, {"smiles": "C#CC(F)(F)[C@]1(O)CC[C@H]2[C@@H]3CCC4=C/C(=N/NC(=O)CN)CCC4=C3[C@H](c3ccc(C4CC4)cc3)C[C@@]21C", "note": "[Compound 35, 2-amino-N′-((8S,11S,13S,14S,17S,E)-11-(4-cyclopropylphenyl)-17-(1,1-difluoroprop-2-yn-1-yl)-17-hydroxy-13-methyl-1,2,6,7,8,11,12,13,14,15,16,17-dodecahydro-3H-cyclopenta[a]phenanthren-3-ylidene)acetohydrazide]", "IC50": "0.1 to 10"}, {"smiles": "C#CC(F)(F)[C@]1(O)CC[C@H]2[C@@H]3CCC4=C/C(=N\\OCCOCCO)CCC4=C3[C@@H](c3ccc(C4CC4)cc3)C[C@@]21C", "note": "[Compound 11, (8S,11R,13S,14S,17S,Z)-11-(4-cyclopropylphenyl)-17-(1,1-difluoroprop-2-yn-1-yl)-17-hydroxy-13-methyl-1,2,6,7,8,11,12,13,14,15,16,17-dodecahydro-3H-cyclopenta[a]phenanthren-3-one O-(2-(2-hydroxyethoxy)ethyl)oxime]", "IC50": "0.1 to 10"}, {"smiles": "C#CC(F)(F)[C@]1(O)CC[C@H]2[C@@H]3CCC4=C/C(=N/NC(=O)COC)CCC4=C3[C@H](c3ccc(C4CC4)cc3)C[C@@]21C", "note": "[Compound 36, N′-((8S,11S,13S,14S,17S,E)-11-(4-cyclopropylphenyl)-17-(1,1-difluoroprop-2-yn-1-yl)-17-hydroxy-13-methyl-1,2,6,7,8,11,12,13,14,15,16,17-dodecahydro-3H-cyclopenta[a]phenanthren-3-ylidene)-2-methoxyacetohydrazide]", "IC50": "0.1 to 10"}, {"smiles": "C#CC(F)(F)[C@]1(O)CC[C@H]2[C@@H]3CCC4=C/C(=N\\OCCOCCOCCOC)CCC4=C3[C@@H](c3ccc(C4CC4)cc3)C[C@@]21C", "note": "[Compound 14, (8S,11R,13S,14S,17S,Z)-11-(4-cyclopropylphenyl)-17-(1,1-difluoroprop-2-yn-1-yl)-17-hydroxy-13-methyl-1,2,6,7,8,11,12,13,14,15,16,17-dodecahydro-3H-cyclopenta[a]phenanthren-3-one O-(2-(2-(2-methoxyethoxy)ethoxy)ethyl)oxime]", "IC50": "0.1 to 10"}, {"smiles": "C#CC(F)(F)[C@]1(O)CC[C@H]2[C@@H]3CCC4=C/C(=N/NC(=O)CO)CCC4=C3[C@H](c3ccc(C4CC4)cc3)C[C@@]21C", "note": "[Compound 37, N′-((8S,11S,13S,14S,17S,E)-11-(4-cyclopropylphenyl)-17-(1,1-difluoroprop-2-yn-1-yl)-17-hydroxy-13-methyl-1,2,6,7,8,11,12,13,14,15,16,17-dodecahydro-3H-cyclopenta[a]phenanthren-3-ylidene)-2-hydroxyacetohydrazide]", "IC50": "0.1 to 10"}, {"smiles": "C#CC(F)(F)[C@]1(O)CC[C@H]2[C@@H]3CCC4=C/C(=N/OCCOCCOCCOC)CCC4=C3[C@@H](c3ccc(C4CC4)cc3)C[C@@]21C", "note": "[Compound 15, (8S,11R,13S,14S,17S,E)-11-(4-cyclopropylphenyl)-17-(1,1-difluoroprop-2-yn-1-yl)-17-hydroxy-13-methyl-1,2,6,7,8,11,12,13,14,15,16,17-dodecahydro-3H-cyclopenta[a]phenanthren-3-one O-(2-(2-(2-methoxyethoxy)ethoxy)ethyl)oxime]", "IC50": "10 to 100"}]}]}
